The source of these data is patent US8198311B2, “Modulators of glucocorticoid receptor, AP-1, and/or NF-κB activity and use thereof” (Bristol-Myers Squibb Company, priority 2006, dated 2012).

Assay [1] concerns the target T1, human glucocorticoid receptor (Homo sapiens, UniProt P04150).
T1 construct: purified human recombinant full-length glucocorticoid receptor (2 nM); purchased Invitrogen Part # 2893
T1 sequence (P04150 1-777): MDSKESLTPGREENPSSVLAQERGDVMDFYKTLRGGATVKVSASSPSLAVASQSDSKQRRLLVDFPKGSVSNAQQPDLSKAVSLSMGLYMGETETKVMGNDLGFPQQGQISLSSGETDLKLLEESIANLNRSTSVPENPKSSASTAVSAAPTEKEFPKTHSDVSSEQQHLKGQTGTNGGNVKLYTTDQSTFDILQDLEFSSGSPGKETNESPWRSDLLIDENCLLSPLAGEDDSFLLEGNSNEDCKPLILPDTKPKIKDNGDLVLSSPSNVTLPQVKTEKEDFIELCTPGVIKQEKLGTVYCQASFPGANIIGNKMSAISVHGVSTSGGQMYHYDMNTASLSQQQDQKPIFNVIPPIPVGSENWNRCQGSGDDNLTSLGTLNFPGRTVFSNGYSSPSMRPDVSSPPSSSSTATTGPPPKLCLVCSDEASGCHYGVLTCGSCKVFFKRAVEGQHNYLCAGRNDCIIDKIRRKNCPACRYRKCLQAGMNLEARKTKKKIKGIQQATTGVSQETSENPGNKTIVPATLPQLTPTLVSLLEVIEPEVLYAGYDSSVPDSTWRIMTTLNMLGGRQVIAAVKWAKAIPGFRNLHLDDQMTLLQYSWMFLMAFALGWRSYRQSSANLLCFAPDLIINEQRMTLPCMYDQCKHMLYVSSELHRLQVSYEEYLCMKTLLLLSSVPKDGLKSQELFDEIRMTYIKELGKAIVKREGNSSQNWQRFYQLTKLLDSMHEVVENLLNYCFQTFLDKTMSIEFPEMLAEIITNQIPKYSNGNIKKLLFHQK
Description: Glucocorticoid Receptor Binding Assay (I), fluorescence polarization competitor kit (Fluormone GS Red). As to conditions: purified human recombinant full-length GR. As for the experimental part:
In order to assess the affinity of test compounds for the human glucocorticoid receptor, a commercially available kit was used (Glucocorticoid Receptor Competitor Assay Kit, Invitrogen Part # 2893). Briefly, purified human recombinant full-length glucocorticoid receptor (2 nM) was mixed with fluorescently labeled glucocorticoid (1 nM Fluormone GS Red) in the presence or absence of test compound. After two hour incubation at room temperature in the dark, the fluorescence polarization (FP) of the samples was measured. […] Test compounds were analyzed in the concentration range from 8.5E-05 μM to 5 μM.
(In general: In fluorescence polarisation assays a small probe gives low polarisation when free and higher when bound to something large.)

For assay [2], the system named is AP-1 induced transcriptional activity. Description: Cellular Transrepressional Assay (AP-1 luciferase reporter in A549 cells, PMA-activated). The class given is cell-based. The settings on record: pAP-1-Luc, 10 ng/ml PMA, read-out: AP-1 (EC50, nM) (Cellular Transrepression Assay). As for the experimental part:
To measure the ability of test molecules to inhibit AP-1 induced transcriptional activity an A549 cell was utilized which was stably transfected with a plasmid containing 7×AP-1 DNA binding sites (pAP-1-Luc plasmid, Stratagene Co. La Jolla, Calif.) followed by the gene for luciferase. Cells were activated with 10 ng/ml of phorbol myristic acid (PMA) plus or minus test molecules for 7 hours. After 7 hours a luciferase reagent was added to measure luciferase enzymatic activity in the cell. After a 10 minute incubation of luciferase reagent with cells, luminescence was measured in a TopCount luminescence counter. Repression of AP-1 activity was calculated as the percentage decrease in the signal induced by PMA alone. Test molecules were analyzed in the concentration range from 0.1 nM to 40 μM. EC50s were determined by using standard curve fitting methods such as Excel fit (Microsoft Co.).

The term Ki denotes the dissociation constant of the complex between target and ligand, obtained from inhibition or displacement. One may read the EC50 as the concentration that produces a half-maximal response.

Where two headings read alike, the source gives them in different places. Where only a bound is given, the exact number is not on record here.

In the case of `CC(C)CC(c1ccc2c(cnn2-c2ccc(F)cc2)c1)C(C)(C)CNC(=O)[C@H](O)C(C)(C)C` (single isomer, unassigned) [Example 69 diastA, N-(3-(1-(4-fluorophenyl)-1H-indazol-5-yl)-2,2,5-trimethylhexyl)-2-hydroxy-3,3-dimethylbutanamide], the Ki in assay [1] came out at 3.7 nM. Moreover, the EC50 in assay [2] (Homo sapiens, A549, 7 h) was above 10000 nM.
For `CC(C)CC(c1ccc2c(cnn2-c2ccc(F)cc2)c1)C(C)(C)CNC(=O)[C@@H](O)C(C)(C)C` (single isomer, unassigned) [Example 69 diastB, N-(3-(1-(4-fluorophenyl)-1H-indazol-5-yl)-2,2,5-trimethylhexyl)-2-hydroxy-3,3-dimethylbutanamide], the Ki in assay [1] was found to be 3.4 nM. In addition, the EC50 in assay [2] (Homo sapiens, A549, 7 h) was above 10000 nM.
As for `CC(CNC(=O)CC(F)(F)F)C(c1ccccc1)c1ccc2c(cnn2-c2ccc(F)cc2)c1` (single isomer, unassigned) [Example 90A, 3,3,3-trifluoro-N-(3-(1-(4-fluorophenyl)-1H-indazol-5-yl)-2-methyl-3-phenylpropyl)propanamide], the Ki in assay [1] stood at 2.3 nM. Further, in assay [2] (7 hours), the EC50 was 52 nM.
On the same counts, the results for `CC(CNC(=O)CC(F)(F)F)C(c1ccccc1)c1ccc2c(cnn2-c2ccc(F)cc2)c1` (single isomer, unassigned) [Example 90B, 3,3,3-trifluoro-N-(3-(1-(4-fluorophenyl)-1H-indazol-5-yl)-2-methyl-3-phenylpropyl)propanamide] are 21 nM and 176 nM.
With `CC(CNC(=O)CC(F)(F)F)C(c1ccccc1)c1ccc2c(cnn2-c2ccc(F)cc2)c1` (single isomer, unassigned) [Example 90C, 3,3,3-trifluoro-N-(3-(1-(4-fluorophenyl)-1H-indazol-5-yl)-2-methyl-3-phenylpropyl)propanamide], the Ki in assay [1] was 2.4 nM. Also, the EC50 in assay [2] (7 hours) stood at 7.4 nM.
For `CC(CNS(=O)(=O)CC(F)(F)F)C(c1ccccc1)c1ccc2c(cnn2-c2ccc(F)cc2)c1` (single isomer, unassigned) [Example 91A, 2,2,2-trifluoro-N-(3-(1-(4-fluorophenyl)-1H-indazol-5-yl)-2-methyl-3-phenylpropyl)ethanesulfonamide] the same measures were 2.1 nM and 5.7 nM.
For `CC(CNS(=O)(=O)CC(F)(F)F)C(c1ccccc1)c1ccc2c(cnn2-c2ccc(F)cc2)c1` (single isomer, unassigned) [Example 91B, 2,2,2-trifluoro-N-(3-(1-(4-fluorophenyl)-1H-indazol-5-yl)-2-methyl-3-phenylpropyl)ethanesulfonamide] the same measures were 15 nM and 201 nM.
On the same counts, the results for `CC(CNS(=O)(=O)CC(F)(F)F)C(c1ccccc1)c1ccc2c(cnn2-c2ccc(F)cc2)c1` (single isomer, unassigned) [Example 91C, 2,2,2-trifluoro-N-(3-(1-(4-fluorophenyl)-1H-indazol-5-yl)-2-methyl-3-phenylpropyl)ethanesulfonamide] are 2.8 nM and 83 nM.
Take `CC(CNS(=O)(=O)CC(F)(F)F)C(c1ccccc1)c1ccc2c(cnn2-c2ccc(F)cc2)c1` (single isomer, unassigned) [Example 91D, 2,2,2-trifluoro-N-(3-(1-(4-fluorophenyl)-1H-indazol-5-yl)-2-methyl-3-phenylpropyl)ethanesulfonamide]: the Ki in assay [1] came out at 74 nM. In addition, the EC50 in assay [2] (7 hours) was determined as 2500 nM.
In the case of `CC(CNC(=O)NC(C)(C)C)C(c1ccccc1)c1ccc2c(cnn2-c2ccc(F)cc2)c1` (single isomer, unassigned) [Example 97A, 1-tert-butyl-3-(3-(1-(4-fluorophenyl)-1H-indazol-5-yl)-2-methyl-3-phenylpropyl)urea], the Ki in assay [1] is 4 nM. Moreover, the EC50 in assay [2] (7 hours) turned out to be 71 nM.
For `CC(C)(CNC(=O)C(F)(F)F)[C@@H](c1ccccc1)c1ccc2c(cnn2-c2ccc(F)cc2)c1` [(S)-16, (S)-2,2,2-trifluoro-N-(3-(1-(4-fluorophenyl)-1H-indazol-5-yl)-2,2-dimethyl-3-phenylpropyl)acetamide], in assay [2] (Homo sapiens, A549, 7 h), the EC50 worked out at 2270 nM.
Turning to `CC(C)CCC(=O)NCC(C)(C)[C@@H](c1ccccc1)c1ccc2c(cnn2-c2ccc(F)cc2)c1` [Example 2, (S)-N-(3-(1-(4-fluorophenyl)-1H-indazol-5-yl)-2,2-dimethyl-3-phenylpropyl)-4-methylpentanamide], the half-maximal effective concentration (EC50) in assay [2] (Homo sapiens, A549, 7 h) is 508 nM.
For the compound `CC(C)(CNC(=O)Cc1ccccc1)[C@@H](c1ccccc1)c1ccc2c(cnn2-c2ccc(F)cc2)c1` [Example 3, (S)-N-(3-(1-(4-fluorophenyl)-1H-indazol-5-yl)-2,2-dimethyl-3-phenylpropyl)-2-phenylacetamide], the concentration giving a half-maximal response (EC50) in assay [2] (Homo sapiens, A549, 7 h) was 2520 nM.
On the same count and under the same terms, as for `CC(C)C(=O)NCC(C)(C)[C@@H](c1ccccc1)c1ccc2c(cnn2-c2ccc(F)cc2)c1` [Example 4, (S)-N-(3-(1-(4-fluorophenyl)-1H-indazol-5-yl)-2,2-dimethyl-3-phenylpropyl)isobutyramide], the figure is 1280 nM; as for `CC(C)(C)C(=O)NCC(C)(C)[C@@H](c1ccccc1)c1ccc2c(cnn2-c2ccc(F)cc2)c1` [Example 5, (S)-N-(3-(1-(4-fluorophenyl)-1H-indazol-5-yl)-2,2-dimethyl-3-phenylpropyl)pivalamide], 1060 nM.
Take `CC(C)(CNS(=O)(=O)C1CC1)[C@@H](c1ccccc1)c1ccc2c(cnn2-c2ccc(F)cc2)c1` [Example 12, (S)-N-(3-(1-(4-fluorophenyl)-1H-indazol-5-yl)-2,2-dimethyl-3-phenylpropyl)cyclopropanesulfonamide]: the EC50 in assay [2] (Homo sapiens, A549, 7 h) worked out at 211 nM.
`CC(C)(CNS(=O)(=O)CS(C)(=O)=O)[C@@H](c1ccccc1)c1ccc2c(cnn2-c2ccc(F)cc2)c1` [Example 14, (S)-N-(3-(1-(4-fluorophenyl)-1H-indazol-5-yl)-2,2-dimethyl-3-phenylpropyl)-1-(methylsulfonyl)methanesulfonamide]: in assay [2] (Homo sapiens, A549, 7 h), the EC50 worked out at 1860 nM.
Turning to `CN(C)S(=O)(=O)NCC(C)(C)[C@@H](c1ccccc1)c1ccc2c(cnn2-c2ccc(F)cc2)c1` [Example 15, (S)-N-dimethyl-N′-(3-(1-(4-fluorophenyl)-1H-indazol-5-yl)-2,2-dimethyl-3-phenylpropyl)propane-1-sulfamide], in assay [2] (Homo sapiens, A549, 7 h), the EC50 turned out to be 2780 nM.
As for `CC(C)(CNC(=O)c1cccs1)[C@H](c1ccccc1)c1ccc2c(cnn2-c2ccc(F)cc2)c1` [Example 20, (R)-N-(3-(1-(4-fluorophenyl)-1H-indazol-5-yl)-2,2-dimethyl-3-phenylpropyl)thiophene-2-carboxamide], in assay [2] (Homo sapiens, A549, 7 h), the EC50 was found to be 573 nM.
For `C#CC(C)(C)NC(=O)NCC(C)(C)C(CC(C)C)c1ccc2c(cnn2-c2ccc(F)cc2)c1` (stereo not shown) [Example 72, 1-(3-(1-(4-fluorophenyl)-1H-indazol-5-yl)-2,2,5-trimethylhexyl)-3-(2-methylbut-3-yn-2-yl)urea], the Ki in assay [1] came to 55 nM.
On the same count and under the same terms, as for `CC(C)(CNC(=O)CC(F)(F)F)C1(c2ccc3c(cnn3-c3ccc(F)cc3)c2)CCOCC1` [Example 113, 3,3,3-Trifluoro-N-(2-(4-(1-(4-fluorophenyl)-1H-indazol-5-yl)tetrahydro-2H-pyran-4-yl)-2-methylpropyl)propanamide], the figure is 22 nM.
